Data as given in the NIST ThermoML archive (doi:10.1016/j.tca.2014.07.022).
± gives the expanded uncertainty stated by the source.

Experiments:
[1] = 100 kPa, Liquid; for viscosity: Concentric cylinders viscometry; for mass density: Vibrating tube method
[2] = xn = mol fraction of the nth substance listed; details: 100 kPa, Liquid; for viscosity: Concentric cylinders viscometry; for mass density: Vibrating tube method

`CC(=O)CC(C)C` [4-methylpentan-2-one] gave a viscosity ([1]; 293.15 K) of 0.588 ± 0.013 mPa·s, a mass density ([1]; 293.15 K) of 800.8 ± 0.3 kg/m3 and a viscosity ([1]; 298.15 K) of 0.554 ± 0.013 mPa·s. It also gave a mass density ([1]; 298.15 K) of 796.1 ± 0.3 kg/m3, a viscosity ([1]; 303.15 K) of 0.523 ± 0.012 mPa·s and a mass density ([1]; 303.15 K) of 791.6 ± 0.3 kg/m3. For the same compound, the viscosity ([1]; 308.15 K) was 0.493 ± 0.011 mPa·s, the mass density ([1]; 308.15 K) was 786.9 ± 0.3 kg/m3 and the viscosity ([1]; 313.15 K) was 0.463 ± 0.011 mPa·s. The mass density ([1]; 313.15 K) was 782.3 ± 0.3 kg/m3, the viscosity ([1]; 318.15 K) was 0.437 ± 0.01 mPa·s and the mass density ([1]; 318.15 K) was 777.6 ± 0.3 kg/m3. The viscosity ([1]; 323.15 K) was 0.41 ± 0.01 mPa·s and the mass density ([1]; 323.15 K) was 773 ± 0.3 kg/m3.

`CC(=O)CC(C)C` [4-methylpentan-2-one] + CCCC(C)O gave a viscosity ([2]; 293.15 K, x1 = 1) of 0.588 ± 0.013 mPa·s, a mass density ([2]; 293.15 K, x1 = 1) of 800.8 ± 0.3 kg/m3 and a viscosity ([2]; 298.15 K, x1 = 1) of 0.554 ± 0.013 mPa·s. It also gave a mass density ([2]; 298.15 K, x1 = 1) of 796.1 ± 0.3 kg/m3, a viscosity ([2]; 303.15 K, x1 = 1) of 0.523 ± 0.012 mPa·s and a mass density ([2]; 303.15 K, x1 = 1) of 791.6 ± 0.3 kg/m3. The viscosity ([2]; 308.15 K, x1 = 1) was 0.493 ± 0.011 mPa·s, the mass density ([2]; 308.15 K, x1 = 1) was 786.9 ± 0.3 kg/m3 and the viscosity ([2]; 313.15 K, x1 = 1) was 0.463 ± 0.011 mPa·s. It also gave a mass density ([2]; 313.15 K, x1 = 1) of 782.3 ± 0.3 kg/m3, a viscosity ([2]; 318.15 K, x1 = 1) of 0.437 ± 0.01 mPa·s and a mass density ([2]; 318.15 K, x1 = 1) of 777.6 ± 0.3 kg/m3. For the same compound, the viscosity ([2]; 323.15 K, x1 = 1) was 0.41 ± 0.01 mPa·s and the mass density ([2]; 323.15 K, x1 = 1) was 773 ± 0.3 kg/m3.

`CCC(C)O` (stereo not drawn) [butan-2-ol] showed a viscosity ([1]; 293.15 K) of 3.67 ± 0.077 mPa·s, a mass density ([1]; 293.15 K) of 806.7 ± 0.3 kg/m3 and a viscosity ([1]; 298.15 K) of 3.04 ± 0.064 mPa·s. The mass density ([1]; 298.15 K) was 802.7 ± 0.3 kg/m3, the viscosity ([1]; 303.15 K) was 2.54 ± 0.053 mPa·s and the mass density ([1]; 303.15 K) was 798.4 ± 0.3 kg/m3. The viscosity ([1]; 308.15 K) was 2.128 ± 0.045 mPa·s, the mass density ([1]; 308.15 K) was 794.1 ± 0.3 kg/m3 and the viscosity ([1]; 313.15 K) was 1.805 ± 0.038 mPa·s. It also gave a mass density ([1]; 313.15 K) of 789.8 ± 0.3 kg/m3, a viscosity ([1]; 318.15 K) of 1.538 ± 0.033 mPa·s and a mass density ([1]; 318.15 K) of 785.2 ± 0.3 kg/m3. It also gave a viscosity ([1]; 323.15 K) of 1.325 ± 0.028 mPa·s and a mass density ([1]; 323.15 K) of 780.6 ± 0.3 kg/m3.

In the case of `CCC(C)O` (stereo not drawn) [butan-2-ol] + CC(=O)CC(C)C, the viscosity ([2]; 293.15 K, x2 = 0) is reported as 3.67 ± 0.077 mPa·s, the mass density ([2]; 293.15 K, x2 = 0) is reported as 806.7 ± 0.3 kg/m3 and the viscosity ([2]; 298.15 K, x2 = 0) is reported as 3.04 ± 0.064 mPa·s. It also gave a mass density ([2]; 298.15 K, x2 = 0) of 802.7 ± 0.3 kg/m3, a viscosity ([2]; 303.15 K, x2 = 0) of 2.54 ± 0.053 mPa·s and a mass density ([2]; 303.15 K, x2 = 0) of 798.4 ± 0.3 kg/m3. For the same compound, the viscosity ([2]; 308.15 K, x2 = 0) was 2.128 ± 0.045 mPa·s, the mass density ([2]; 308.15 K, x2 = 0) was 794.1 ± 0.3 kg/m3 and the viscosity ([2]; 313.15 K, x2 = 0) was 1.805 ± 0.038 mPa·s. It also gave a mass density ([2]; 313.15 K, x2 = 0) of 789.8 ± 0.3 kg/m3, a viscosity ([2]; 318.15 K, x2 = 0) of 1.538 ± 0.033 mPa·s and a mass density ([2]; 318.15 K, x2 = 0) of 785.2 ± 0.3 kg/m3. For the same compound, the viscosity ([2]; 323.15 K, x2 = 0) was 1.325 ± 0.028 mPa·s and the mass density ([2]; 323.15 K, x2 = 0) was 780.6 ± 0.3 kg/m3.

Compound `CCCC(C)O` (stereo not drawn) [pentan-2-ol] has a viscosity ([1]; 293.15 K) of 3.974 ± 0.083 mPa·s, a mass density ([1]; 293.15 K) of 809.3 ± 0.3 kg/m3 and a viscosity ([1]; 298.15 K) of 3.277 ± 0.069 mPa·s. For the same compound, the mass density ([1]; 298.15 K) was 805.3 ± 0.3 kg/m3, the viscosity ([1]; 303.15 K) was 2.717 ± 0.057 mPa·s and the mass density ([1]; 303.15 K) was 801.2 ± 0.3 kg/m3. For the same compound, the viscosity ([1]; 308.15 K) was 2.282 ± 0.048 mPa·s, the mass density ([1]; 308.15 K) was 797 ± 0.3 kg/m3 and the viscosity ([1]; 313.15 K) was 1.931 ± 0.041 mPa·s. The mass density ([1]; 313.15 K) was 792.7 ± 0.3 kg/m3, the viscosity ([1]; 318.15 K) was 1.647 ± 0.035 mPa·s and the mass density ([1]; 318.15 K) was 788.4 ± 0.3 kg/m3. The viscosity ([1]; 323.15 K) was 1.419 ± 0.03 mPa·s and the mass density ([1]; 323.15 K) was 784 ± 0.3 kg/m3.

`CC(C)O` [propan-2-ol] showed a viscosity ([1]; 293.15 K) of 2.417 ± 0.051 mPa·s, a mass density ([1]; 293.15 K) of 785.4 ± 0.3 kg/m3 and a viscosity ([1]; 298.15 K) of 2.083 ± 0.044 mPa·s. It also gave a mass density ([1]; 298.15 K) of 781.1 ± 0.3 kg/m3, a viscosity ([1]; 303.15 K) of 1.8 ± 0.038 mPa·s and a mass density ([1]; 303.15 K) of 776.8 ± 0.3 kg/m3. It also gave a viscosity ([1]; 308.15 K) of 1.561 ± 0.033 mPa·s, a mass density ([1]; 308.15 K) of 772.4 ± 0.3 kg/m3 and a viscosity ([1]; 313.15 K) of 1.359 ± 0.029 mPa·s. It also gave a mass density ([1]; 313.15 K) of 768 ± 0.3 kg/m3, a viscosity ([1]; 318.15 K) of 1.189 ± 0.025 mPa·s and a mass density ([1]; 318.15 K) of 763.4 ± 0.3 kg/m3. The viscosity ([1]; 323.15 K) was 1.047 ± 0.023 mPa·s and the mass density ([1]; 323.15 K) was 758.8 ± 0.3 kg/m3.

Work on `CC(C)O` [propan-2-ol] + CC(=O)CC(C)C yielded a viscosity ([2]; 293.15 K, x2 = 0) of 2.417 ± 0.051 mPa·s, a mass density ([2]; 293.15 K, x2 = 0) of 785.4 ± 0.3 kg/m3 and a viscosity ([2]; 298.15 K, x2 = 0) of 2.083 ± 0.044 mPa·s. For the same compound, the mass density ([2]; 298.15 K, x2 = 0) was 781.1 ± 0.3 kg/m3, the viscosity ([2]; 303.15 K, x2 = 0) was 1.8 ± 0.038 mPa·s and the mass density ([2]; 303.15 K, x2 = 0) was 776.8 ± 0.3 kg/m3. For the same compound, the viscosity ([2]; 308.15 K, x2 = 0) was 1.561 ± 0.033 mPa·s, the mass density ([2]; 308.15 K, x2 = 0) was 772.4 ± 0.3 kg/m3 and the viscosity ([2]; 313.15 K, x2 = 0) was 1.359 ± 0.029 mPa·s. For the same compound, the mass density ([2]; 313.15 K, x2 = 0) was 768 ± 0.3 kg/m3, the viscosity ([2]; 318.15 K, x2 = 0) was 1.189 ± 0.025 mPa·s and the mass density ([2]; 318.15 K, x2 = 0) was 763.4 ± 0.3 kg/m3. It also gave a viscosity ([2]; 323.15 K, x2 = 0) of 1.047 ± 0.023 mPa·s and a mass density ([2]; 323.15 K, x2 = 0) of 758.8 ± 0.3 kg/m3.
